The source made the active and inactive calls.
Assays:
[1] = target: G-protein coupled receptor 35 (Homo sapiens, UniProt Q9HC97); assay: inhibition of zaprinast-stimulated GPR35 beta-arrestin translocation – imaging, U2OS, beta-arrestin-GFP, zaprinast agonist, primary screen (AID 2058); assay type: functional;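 further: antagonist potency meaning inhibition of agonist-induced arrestin redistribution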
[2] = target: T1, Estrogen receptor beta (Homo sapiens, UniProt Q92731);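 further: recombinant ER-beta bound to coactivator SRC1 peptide in presence of estradiol agonist; inhibitors block coactivator peptide binding and lower the FRET signal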
[3] = target: T1, Estrogen receptor beta; assay: blockers of SRC-3 recruitment to ERβ – biochemical, ELISA, streptavidin-HRP readout, orthogonal assay, confirmation (AID 1060)
[4] = target: T2, Estrogen receptor (Homo sapiens, UniProt P03372);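 further: potency for inhibiting coactivator peptide recruitment to the receptor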
T2 sequence (P03372 whole entry): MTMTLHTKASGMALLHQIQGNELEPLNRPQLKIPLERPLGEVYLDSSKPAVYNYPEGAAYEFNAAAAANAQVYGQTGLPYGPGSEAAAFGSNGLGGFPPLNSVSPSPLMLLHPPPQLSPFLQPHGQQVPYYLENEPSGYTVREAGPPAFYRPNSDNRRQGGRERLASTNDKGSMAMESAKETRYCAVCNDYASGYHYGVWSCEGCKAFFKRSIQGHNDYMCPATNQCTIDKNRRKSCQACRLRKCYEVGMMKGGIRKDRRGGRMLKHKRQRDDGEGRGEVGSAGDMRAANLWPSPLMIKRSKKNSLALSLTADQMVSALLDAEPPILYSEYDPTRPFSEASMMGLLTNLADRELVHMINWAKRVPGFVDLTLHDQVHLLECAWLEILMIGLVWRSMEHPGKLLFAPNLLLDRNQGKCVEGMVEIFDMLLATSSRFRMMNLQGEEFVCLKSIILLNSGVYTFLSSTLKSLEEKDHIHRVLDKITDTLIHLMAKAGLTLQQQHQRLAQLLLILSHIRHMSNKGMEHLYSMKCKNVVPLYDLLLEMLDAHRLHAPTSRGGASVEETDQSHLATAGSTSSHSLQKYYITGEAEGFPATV

[5] = target: T3, Alkaline phosphatase, tissue-nonspecific isozyme (Homo sapiens, UniProt P05186)
T3 sequence (P05186 whole entry): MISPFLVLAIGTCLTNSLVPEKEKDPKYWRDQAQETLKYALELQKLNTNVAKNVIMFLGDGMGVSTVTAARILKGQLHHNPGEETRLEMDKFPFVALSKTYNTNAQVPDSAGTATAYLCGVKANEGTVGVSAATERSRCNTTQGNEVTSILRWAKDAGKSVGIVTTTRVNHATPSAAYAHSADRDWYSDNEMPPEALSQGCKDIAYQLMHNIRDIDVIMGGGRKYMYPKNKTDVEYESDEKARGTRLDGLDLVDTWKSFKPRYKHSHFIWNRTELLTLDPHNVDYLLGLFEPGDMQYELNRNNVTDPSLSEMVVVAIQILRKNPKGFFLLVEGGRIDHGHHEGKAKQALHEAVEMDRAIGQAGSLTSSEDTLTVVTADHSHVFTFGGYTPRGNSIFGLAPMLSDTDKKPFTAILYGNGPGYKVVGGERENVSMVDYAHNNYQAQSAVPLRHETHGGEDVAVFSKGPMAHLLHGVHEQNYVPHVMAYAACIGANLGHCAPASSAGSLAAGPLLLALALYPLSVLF

[6] = target: Cytochrome P450 2C9 (Homo sapiens, UniProt P11712)
[7] = test system: INS1; assay: INS-1E survival protection against cytokine death – cell-based, luminescence, retest, dose response (AID 449756); assay type: functional; conditions: Rattus norvegicus;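 further: cell death triggered by IL-1 beta plus TNF-alpha plus IFN-gamma mixture; protective hits raise ATP signal compared with cytokine alone wells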
[8] = test system: H9c2; assay: cells; assay type: functional, cell-based; conditions: Rattus norvegicus, H9c2, Myocardium;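 further: confirmatory concentration-response retest of ultra-high-throughput screening hits for modulation of myocardial damage; cell death induced by hydrogen peroxide oxidative stress; compound pretreatment for 60 min then peroxide exposure for 2 h; potency is for protecting the cells against peroxide damage rather than for killing them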
[9] = Luminescence Cell-Based Dose Response HTS to Identify Activators of Luciferase Translation or Activity in H4 […] Cells. [Related pubchem assays: 1829 (Project Summary), 1814 (Primary HTS)]; assay type: functional
[10] = target: T4, Tyrosine-protein phosphatase non-receptor type 7 (Homo sapiens, UniProt P35236); assay: SAR analysis of chemical inhibitors of HePTP using a Fluorescent assay - Set 2. [Related pubchem assays (depositor defined):AID1059, AID1077, AID1661, AID2085, AID521]; assay type: functional
T4 sequence (P35236 whole entry): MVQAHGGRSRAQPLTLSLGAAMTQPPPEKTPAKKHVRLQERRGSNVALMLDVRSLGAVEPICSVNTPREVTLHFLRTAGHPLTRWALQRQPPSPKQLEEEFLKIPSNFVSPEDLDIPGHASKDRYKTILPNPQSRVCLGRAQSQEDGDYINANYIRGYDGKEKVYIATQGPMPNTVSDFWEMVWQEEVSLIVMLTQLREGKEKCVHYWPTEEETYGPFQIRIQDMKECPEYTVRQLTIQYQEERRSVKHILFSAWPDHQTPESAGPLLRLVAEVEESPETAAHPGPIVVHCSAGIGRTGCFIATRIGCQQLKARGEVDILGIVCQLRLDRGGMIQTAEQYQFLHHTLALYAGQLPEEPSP

[11] = Luminescence Cell-Based Dose Confirmation HTS to Identify Activators of 5'UTR Stem-Loop Driven Alpha-Synuclein mRNA Translation in H4 Neuroglioblastoma Cells. [Related pubchem assays: 1829 (Project Summary), 1814 (Primary HTS)]; assay type: functional
[12] = target: Dual specificity protein phosphatase 3 (Homo sapiens, UniProt P51452); assay: SAR VHR1 Fluorescent Assay for In Vitro dose response studies Set 2. [Related pubchem assays (depositor defined):AID1654, AID1661, AID1878]; assay type: functional
[13] = test system: H4; assay: Luminescence Cell-Based Dose Response HTS to Identify Activators of 5'UTR Stem-Loop Driven Prion Protein mRNA Translation in H4 Neuroglioblastoma Cells. [Related pubchem assays: 1829 (Project Summary), 1814 (Primary HTS)]; assay type: functional; conditions: Homo sapiens
[14] = HGIII-sPLA2 enzyme inhibition potency – biochemical, QFRET, IC50, dose response (AID 743457);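 further: green fluorescence rise as the enzyme cleaves BODIPY PC-A2 in liposomes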
[15] = target: Alkaline phosphatase, placental type (Homo sapiens, UniProt P05187); assay: human placental alkaline phosphatase inhibition – biochemical, luminescence, confirmation (AID 1512); assay type: functional
[16] = test system: HeLa; assay: Cytotoxicity counterscreen assay for transcriptional activators of heat shock protein 70 (Hsp70). [Related pubchem assays: 1203, 1252 ]; assay type: functional; conditions: Homo sapiens;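 further: cells exposed to compound for 16 hours before readout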
[17] = target: Acyl-homoserine lactone acylase PvdQ (Pseudomonas aeruginosa (strain LESB58), UniProt Q9I194); assay: PvdQ acylase enzyme activity blockers – biochemical, fluorescence, plate reader and imaging, cherry-picks, dose response (AID 493231)
[18] = A549 cell cytotoxicity, dose response, cytotoxicity control, plate reader, cherry-pick, antagonist series (AID 743412); assay type: functional, cell-based
[19] = toxicity toward HepG2 liver cells – cell-based, plate reader, cherry-pick, antagonist series, cytotoxicity control, dose response (AID 743416); assay type: functional
[20] = target: FAD-linked sulfhydryl oxidase ALR (Homo sapiens, UniProt P55789); assay: ALR-catalysed DTT oxidation blockers – biochemical, H2O2 detection, luminescence, cherry-pick, dose response (AID 493248)
[21] = target: Lysosomal acid glucosylceramidase (Homo sapiens, UniProt P04062); assay: Dose response cell-based high throughput screening assay to identify enhancers of beta-glucosidase activity. [Related pubchem assays: 784 ]; assay type: functional
[22] = alpha-synuclein stem-loop luciferase translation blockers – H4 neuroglioma cells, luminescence, confirmation (AID 1988); assay type: functional, cell-based
[23] = blockers of bursicon-stimulated LGR2 cAMP reporter – cell-based, HEK293, CRE-luciferase reporter, cherry pick, set 2, dose response (AID 743343); assay type: functional;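 further: transfected cells were stimulated with diluted bursicon conditioned medium after compound addition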
[24] = viability loss in HEK293 cells – cell-based, plate reader, cherry-picked samples, cytotoxicity control, dose response (AID 743446); assay type: functional
[25] = blockade of melanocortin 4 receptor signaling – cell-based, plate reader, cherry pick, counter-screen for LGR2 antagonist project, dose response (AID 743444); assay type: functional;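 further: transfected HEK 293 cells stimulated with alpha-MSH peptide; potency of inhibitors of the alpha-MSH evoked signal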
[26] = test system: HEK293; assay: EBV LMP1 TES2 canonical NF-kB signalling blockers – cell-based, HEK293, luciferase, cherry-pick, dose response (AID 588343); assay type: functional; conditions: Homo sapiens
[27] = Luminescence Cell-Based Dose Response HTS to Identify Inhibitors of 5'UTR Stem-Loop Driven Prion Protein mRNA Translation in H4 Neuroglioblastoma Cells. [Related pubchem assays: 1827 (Project Summary), 1813 (Primary HTS)]; assay type: functional
[28] = target: Delta-type opioid receptor (Homo sapiens, UniProt P41143); assay: Counterscreen for agonists of heterodimerization of the mu 1 (OPRM1) and delta 1 (OPRD1) opioid receptors: Luminescence-based cell-based high throughput dose response assay to identify agonists of OPRD1 homodimerization. [Related pubchem assays (depositor defined):AID504326, AID504355, AID504692, AID504904, AID504905]; assay type: functional
[29] = target: Mu-type opioid receptor (Homo sapiens, UniProt P35372); assay: Counterscreen for agonists of heterodimerization of the mu 1 (OPRM1) and delta 1 (OPRD1) opioid receptors: Luminescence-based cell-based high throughput dose response assay to identify agonists of OPRM1 homodimerization.; assay type: functional;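 further: U2OS cells expressing OPRM1 and beta-arrestin as split beta-galactosidase partners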
[30] = target: 5-hydroxytryptamine receptor 5A (Homo sapiens, UniProt P47898); assay: Counterscreen for agonists of OPRM1-OPRD1 heterodimerization: luminescence-based cell-based high throughput dose response assay to identify agonists of 5-hydroxytryptamine (serotonin) 5A receptor (HTR5A). [Related pubchem assays (depositor defined):AID504326, AID504355, AID504692, AID504904, AID504905]; assay type: functional
[31] = target: Bcl-2-like protein 10 (Homo sapiens, UniProt Q9HD36); assay: Bcl-B/TR3 peptide binding disruption – biochemical, fluorescence polarization, FITC-TR3 peptide, selectivity assay for Bfl-1 inhibitor project, primary screen (AID 748);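 further: fluorescence polarization from a fluorescein-labelled TR3 peptide binding purified Bcl-B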
[32] = target: T5, Short transient receptor potential channel 4 (Mus musculus, UniProt Q9QUQ5); assay: block of DAMGO-driven TRPC4 calcium entry – cell-based, HEK293 TRPC4/mu-opioid, Fluo-4 calcium, dose response (AID 434942); assay type: functional;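 further: potency of inhibitors blocking the TRPC4 calcium response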
T5 sequence (Q9QUQ5 whole entry): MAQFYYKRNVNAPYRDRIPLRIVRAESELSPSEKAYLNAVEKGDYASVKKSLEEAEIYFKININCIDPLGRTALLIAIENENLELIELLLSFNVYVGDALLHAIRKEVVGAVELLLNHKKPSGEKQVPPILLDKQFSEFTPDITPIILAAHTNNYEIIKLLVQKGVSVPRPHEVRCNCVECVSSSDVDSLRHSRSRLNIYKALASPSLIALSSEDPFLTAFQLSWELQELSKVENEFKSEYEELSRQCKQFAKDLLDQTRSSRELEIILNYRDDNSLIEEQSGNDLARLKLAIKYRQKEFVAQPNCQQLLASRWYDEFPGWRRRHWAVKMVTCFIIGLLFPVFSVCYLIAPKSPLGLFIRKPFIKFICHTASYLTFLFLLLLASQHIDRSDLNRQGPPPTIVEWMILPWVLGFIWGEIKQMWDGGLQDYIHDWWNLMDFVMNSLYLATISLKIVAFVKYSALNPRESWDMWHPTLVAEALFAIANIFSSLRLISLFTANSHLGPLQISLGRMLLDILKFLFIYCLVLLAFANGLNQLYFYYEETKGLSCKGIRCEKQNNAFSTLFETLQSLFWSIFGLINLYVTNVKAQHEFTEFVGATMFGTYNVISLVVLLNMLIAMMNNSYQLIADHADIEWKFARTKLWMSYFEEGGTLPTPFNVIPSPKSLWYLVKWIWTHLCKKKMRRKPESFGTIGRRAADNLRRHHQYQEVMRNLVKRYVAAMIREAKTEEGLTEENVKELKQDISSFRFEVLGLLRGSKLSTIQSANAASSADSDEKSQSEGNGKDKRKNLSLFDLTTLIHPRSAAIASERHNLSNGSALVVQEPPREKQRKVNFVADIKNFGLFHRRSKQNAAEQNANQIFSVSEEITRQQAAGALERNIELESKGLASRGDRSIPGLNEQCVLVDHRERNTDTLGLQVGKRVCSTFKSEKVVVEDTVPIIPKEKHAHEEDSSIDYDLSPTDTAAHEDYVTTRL

[33] = target: Nonstructural protein 1 (Influenza A virus, UniProt Q194T2); assay type: functional, Influenza A virus (A/California/07/2009(H1N1))
Nonstructural protein 1, sequence (Q194T2 whole entry): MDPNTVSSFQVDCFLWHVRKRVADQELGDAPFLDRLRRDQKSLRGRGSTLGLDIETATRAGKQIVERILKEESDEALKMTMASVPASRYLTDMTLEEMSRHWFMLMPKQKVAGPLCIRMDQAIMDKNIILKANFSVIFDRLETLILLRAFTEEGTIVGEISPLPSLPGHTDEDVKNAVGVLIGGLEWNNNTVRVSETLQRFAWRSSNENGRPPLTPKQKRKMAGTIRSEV

Dual specificity protein phosphatase 3, sequence (P51452 whole entry): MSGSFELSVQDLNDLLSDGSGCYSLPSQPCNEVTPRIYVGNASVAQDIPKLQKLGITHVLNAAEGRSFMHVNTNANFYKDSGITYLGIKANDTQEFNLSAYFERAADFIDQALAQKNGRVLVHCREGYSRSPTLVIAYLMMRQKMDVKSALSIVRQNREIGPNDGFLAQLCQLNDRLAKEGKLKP
Acyl-homoserine lactone acylase PvdQ, sequence (Q9I194 24-193 limits assumed): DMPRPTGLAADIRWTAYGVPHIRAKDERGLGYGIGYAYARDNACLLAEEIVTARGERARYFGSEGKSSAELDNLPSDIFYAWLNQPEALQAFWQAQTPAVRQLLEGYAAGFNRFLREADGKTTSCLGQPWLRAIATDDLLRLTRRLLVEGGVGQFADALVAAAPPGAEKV
Acyl-homoserine lactone acylase PvdQ, sequence (Q9I194 217-762 limits assumed): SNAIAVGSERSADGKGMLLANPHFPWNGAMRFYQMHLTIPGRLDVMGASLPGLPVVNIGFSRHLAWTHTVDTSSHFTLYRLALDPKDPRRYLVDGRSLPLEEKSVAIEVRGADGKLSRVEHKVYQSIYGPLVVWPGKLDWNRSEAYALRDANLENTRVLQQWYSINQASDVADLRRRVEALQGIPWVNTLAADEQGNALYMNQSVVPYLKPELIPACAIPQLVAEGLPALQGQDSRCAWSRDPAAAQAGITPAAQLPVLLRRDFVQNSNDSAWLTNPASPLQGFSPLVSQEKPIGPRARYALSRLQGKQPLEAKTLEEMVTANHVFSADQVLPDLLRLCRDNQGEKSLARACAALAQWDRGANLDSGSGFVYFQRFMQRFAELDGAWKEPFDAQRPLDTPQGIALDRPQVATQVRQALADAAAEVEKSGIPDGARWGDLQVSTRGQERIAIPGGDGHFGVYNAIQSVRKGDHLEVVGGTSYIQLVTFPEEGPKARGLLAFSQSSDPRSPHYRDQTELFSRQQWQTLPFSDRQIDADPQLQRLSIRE
T1 sequence (Q92731 whole entry): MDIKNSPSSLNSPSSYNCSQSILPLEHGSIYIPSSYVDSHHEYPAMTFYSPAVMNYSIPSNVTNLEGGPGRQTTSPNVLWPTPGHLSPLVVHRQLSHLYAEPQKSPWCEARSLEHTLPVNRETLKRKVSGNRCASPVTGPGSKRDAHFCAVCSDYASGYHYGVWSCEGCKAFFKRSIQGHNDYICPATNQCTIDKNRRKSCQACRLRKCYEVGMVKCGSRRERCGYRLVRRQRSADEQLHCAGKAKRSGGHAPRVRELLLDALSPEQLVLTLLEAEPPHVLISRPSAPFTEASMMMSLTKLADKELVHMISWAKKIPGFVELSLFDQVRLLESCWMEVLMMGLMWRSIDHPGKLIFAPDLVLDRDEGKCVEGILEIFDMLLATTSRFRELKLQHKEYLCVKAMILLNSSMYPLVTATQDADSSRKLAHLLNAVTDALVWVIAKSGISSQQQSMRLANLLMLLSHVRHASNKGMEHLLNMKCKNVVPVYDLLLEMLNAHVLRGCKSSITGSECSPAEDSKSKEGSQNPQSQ
Lysosomal acid glucosylceramidase, sequence (P04062 whole entry): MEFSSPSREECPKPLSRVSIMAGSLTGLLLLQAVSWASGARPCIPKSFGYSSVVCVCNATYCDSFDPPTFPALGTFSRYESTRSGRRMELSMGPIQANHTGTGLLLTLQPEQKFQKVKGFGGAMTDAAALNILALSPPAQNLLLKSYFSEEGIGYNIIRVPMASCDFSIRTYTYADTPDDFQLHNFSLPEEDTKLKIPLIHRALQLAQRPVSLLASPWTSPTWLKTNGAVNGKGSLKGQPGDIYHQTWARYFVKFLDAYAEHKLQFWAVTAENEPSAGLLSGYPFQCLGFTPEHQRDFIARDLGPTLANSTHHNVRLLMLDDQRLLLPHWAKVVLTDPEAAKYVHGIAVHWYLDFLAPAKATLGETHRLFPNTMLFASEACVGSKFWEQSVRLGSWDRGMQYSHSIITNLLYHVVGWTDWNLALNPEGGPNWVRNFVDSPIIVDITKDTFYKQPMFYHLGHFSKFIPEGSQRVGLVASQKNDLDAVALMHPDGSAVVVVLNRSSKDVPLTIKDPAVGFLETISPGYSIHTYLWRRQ
Cytochrome P450 2C9, sequence (P11712 whole entry): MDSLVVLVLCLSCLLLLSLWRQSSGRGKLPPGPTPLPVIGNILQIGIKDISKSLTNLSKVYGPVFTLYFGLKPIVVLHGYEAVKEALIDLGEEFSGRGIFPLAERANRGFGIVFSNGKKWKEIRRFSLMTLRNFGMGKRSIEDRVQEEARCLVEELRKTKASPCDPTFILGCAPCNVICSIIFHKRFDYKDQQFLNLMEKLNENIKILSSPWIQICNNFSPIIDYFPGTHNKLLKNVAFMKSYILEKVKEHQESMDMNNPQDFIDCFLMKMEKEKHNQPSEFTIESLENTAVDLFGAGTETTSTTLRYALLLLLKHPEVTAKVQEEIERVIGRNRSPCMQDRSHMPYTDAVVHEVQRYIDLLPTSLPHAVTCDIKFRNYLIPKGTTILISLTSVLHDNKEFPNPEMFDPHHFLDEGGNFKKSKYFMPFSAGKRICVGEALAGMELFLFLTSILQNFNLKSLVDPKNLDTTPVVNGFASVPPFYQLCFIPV
Bcl-2-like protein 10, sequence (Q9HD36 whole entry): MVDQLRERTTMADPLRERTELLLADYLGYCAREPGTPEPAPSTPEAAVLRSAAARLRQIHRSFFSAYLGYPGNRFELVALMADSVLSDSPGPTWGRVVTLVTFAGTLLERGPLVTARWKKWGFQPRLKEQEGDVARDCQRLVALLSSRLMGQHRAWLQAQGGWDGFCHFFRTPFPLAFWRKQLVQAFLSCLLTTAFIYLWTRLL
G-protein coupled receptor 35, sequence (Q9HC97 whole entry): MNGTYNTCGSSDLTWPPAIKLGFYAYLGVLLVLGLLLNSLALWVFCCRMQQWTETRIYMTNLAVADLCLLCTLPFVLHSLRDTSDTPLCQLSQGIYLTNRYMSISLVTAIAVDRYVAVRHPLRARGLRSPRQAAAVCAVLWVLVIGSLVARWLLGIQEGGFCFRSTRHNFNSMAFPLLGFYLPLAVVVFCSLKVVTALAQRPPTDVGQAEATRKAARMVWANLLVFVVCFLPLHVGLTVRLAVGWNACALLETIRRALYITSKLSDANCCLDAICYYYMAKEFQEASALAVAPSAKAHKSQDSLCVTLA
Alkaline phosphatase, placental type, sequence (P05187 whole entry): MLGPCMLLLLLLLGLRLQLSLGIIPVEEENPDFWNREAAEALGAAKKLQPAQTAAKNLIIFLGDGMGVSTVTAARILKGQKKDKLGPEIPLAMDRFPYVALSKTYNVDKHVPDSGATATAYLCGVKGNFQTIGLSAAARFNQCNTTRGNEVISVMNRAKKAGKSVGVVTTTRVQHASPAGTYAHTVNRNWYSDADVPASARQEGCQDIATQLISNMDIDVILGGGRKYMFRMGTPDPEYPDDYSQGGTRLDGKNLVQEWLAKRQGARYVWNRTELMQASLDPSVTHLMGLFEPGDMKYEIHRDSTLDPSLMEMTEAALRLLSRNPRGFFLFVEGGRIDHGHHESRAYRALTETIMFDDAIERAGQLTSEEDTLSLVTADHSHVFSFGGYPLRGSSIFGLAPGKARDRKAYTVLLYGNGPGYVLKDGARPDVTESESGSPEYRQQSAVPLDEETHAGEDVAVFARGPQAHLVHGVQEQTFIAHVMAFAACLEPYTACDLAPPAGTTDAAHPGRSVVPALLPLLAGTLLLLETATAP
FAD-linked sulfhydryl oxidase ALR, sequence (P55789 whole entry): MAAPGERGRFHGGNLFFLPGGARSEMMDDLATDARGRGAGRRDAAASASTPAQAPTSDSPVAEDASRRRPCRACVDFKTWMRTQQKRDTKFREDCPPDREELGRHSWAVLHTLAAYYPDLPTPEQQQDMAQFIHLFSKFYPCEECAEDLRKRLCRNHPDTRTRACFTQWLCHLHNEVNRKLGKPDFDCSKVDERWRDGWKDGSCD
Delta-type opioid receptor, sequence (P41143 whole entry): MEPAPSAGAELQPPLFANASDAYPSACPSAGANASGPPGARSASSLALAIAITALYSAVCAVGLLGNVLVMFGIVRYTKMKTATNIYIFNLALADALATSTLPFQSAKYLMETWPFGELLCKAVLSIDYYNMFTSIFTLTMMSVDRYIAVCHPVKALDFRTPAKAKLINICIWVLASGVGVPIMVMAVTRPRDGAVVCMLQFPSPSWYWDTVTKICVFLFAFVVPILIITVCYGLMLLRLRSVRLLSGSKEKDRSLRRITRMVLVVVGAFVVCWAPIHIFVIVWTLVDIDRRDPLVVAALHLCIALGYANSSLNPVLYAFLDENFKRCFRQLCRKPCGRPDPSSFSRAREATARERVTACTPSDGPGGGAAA
5-hydroxytryptamine receptor 5A, sequence (P47898 whole entry): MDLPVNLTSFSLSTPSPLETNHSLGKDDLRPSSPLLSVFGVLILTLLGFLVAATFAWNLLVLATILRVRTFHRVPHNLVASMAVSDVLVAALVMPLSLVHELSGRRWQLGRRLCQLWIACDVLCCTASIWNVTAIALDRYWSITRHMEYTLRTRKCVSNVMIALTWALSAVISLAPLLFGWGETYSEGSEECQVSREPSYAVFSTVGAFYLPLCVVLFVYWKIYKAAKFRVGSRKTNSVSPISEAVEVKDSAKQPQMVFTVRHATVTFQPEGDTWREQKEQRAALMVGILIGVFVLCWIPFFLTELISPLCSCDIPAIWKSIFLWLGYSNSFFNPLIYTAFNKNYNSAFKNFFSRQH

CN(C)c1ccc(/C=C2\NC(=S)N(Cc3ccccc3)C2=O)cc1
IC50 [1]: 0.651 µM (active)

COc1ccc(Cl)cc1NC(=O)c1ocnc1C
IC50 [2]: 8.77 µM (active) | IC50 [3]: > 109 µM (not active) | IC50 [4]: 24.9 µM (active)

O=C(NCc1ccccc1)NC1(C(=O)N2CCN(c3ccccc3)CC2)CCCCC1
EC50 [5]: > 100 µM (not active)

Cc1ccc2c(C)nc(Nc3nc(O)cc(CSc4nc5ccccc5[nH]4)n3)nc2c1
EC50 [5]: 82.2 µM (not active) | AC50 [6]: 0.1 µM (inconclusive) | AC50 [7]: 61.7 µM (active) | IC50 [8]: > 79 µM (inactive)

Cc1ccc(NC(S)=NNC(=O)c2nn(C)c(C)c2Cl)cc1
EC50 [9]: 12 µM (active) | IC50 [10]: > 100 µM (inactive) | EC50 [11]: 6.19 µM (active) | IC50 [12]: > 100 µM (inactive) | EC50 [13]: 10.9 µM (active) | IC50 [14]: > 122 µM (inactive) | IC50 [15]: > 100 µM (inactive)

O=C1NC(=O)C2(COC3(CCCC3)OC2)S1
CC50 [16]: > 99 µM (not active)

COc1ccc(CNCc2cccc(Cl)c2)cc1
AC50 [17]: 6.75 µM (active)

CN(C)c1ccc(-c2nc3ccccc3n2C)cc1
AC50 [18]: 38.2 µM (active) | AC50 [19]: > 52 µM (inactive) | AC50 [20]: 6.13 µM (active) | EC50 [21]: > 50 µM (not active) | EC50 [22]: 7.88 µM (active) | AC50 [23]: 4.7 µM (active) | AC50 [24]: 32.2 µM (active) | AC50 [25]: 4.64 µM (active) | AC50 [26]: 2.11 µM (active) | EC50 [27]: 12.7 µM (active)

O=C1CC(=O)N(c2ccc3c(c2)OCO3)C(=O)N1
EC50 [21]: > 50 µM (not active)

COc1ccc(OC)c(C(=S)NCc2ccc(F)c(C(F)(F)F)c2)c1
IC50 [10]: 15.5 µM (active) | IC50 [12]: 60.8 µM (active)

N#CCN(N=Nc1ccccc1)c1ccccc1
AC50 [17]: 9.41 µM (active)

CC(=O)Nc1ccc(S(=O)(=O)NC2=C(N3CCN(Cc4ccccc4)CC3)C(=O)c3ccccc3C2=O)cc1
EC50 [28]: > 92.4 µM (inactive) | EC50 [29]: > 92.4 µM (inactive) | EC50 [30]: > 92.4 µM (inactive) | IC50 [31]: 77.9 µM (inactive) | EC50 [32]: 1.06 µM (active) | IC50 [33]: 21.4 µM (active)

Source: ChEMBL document CHEMBL1201862, “PubChem BioAssay data set” (2004)
